Experimental data reported in patent publication EP1285659A1, “Use of clarithromycin compositions in the manufacture of a medicament for the treatment of arthritis deformans” (Fondazione Salvatore Maugeri, priority 2001, dated 2003).
Where two headings read alike, the source gives them in different places.

Format: in vivo, patients
Excerpt: The clinical experimentation has been carried out on 18 patients of which 14 females and 4 males, having an average age equal to 62 years selected by the inclusion and exclusion criteria as hereinafter reported. The patients submitted to the clinical experimentation suffered from arthritis deformans diagnosed according to the ARA International Criteria since at least two years, belonging to the 2th and 3rd functional classes according to Steinbrocker. The disease was clinically active notwithstanding the use of drugs known as Disease-Modifying AntiRheumatic Drugs ([…]) able to modify the course of the illness such as for example methotrexate azathioprine, chloroquine, hydroxychloroquine and ciclosporin and notwithstanding the use of steroid and not steroid anti-inflammatory drugs. The patients suffering from arthritis deformans of 4th functional class according to Steinbrocker have been excluded from the experimentation that is the patients invalid with permanent injuries, the patients with associated serious systemic diseases, relevant psychiatric and neuropathic diseases, the drug addicts, the patients suffering from hypersensitivity to the macrolides and the patients under treatment with carbamazepine, ciclosporin and antihistamines. The clarithromycin administration started after the suspension of the Disease-Modifying AntiRheumatic Drugs since one month. In six patients who were assuming a steroid anti-inflammatory drug since at least two weeks, the administration of the same steroid drug with a 6 mg dose of prednisonic equivalent has been associated to the administration of clarithromycin. The administration of clarithromycin was 500 mg twice a day for 8-14 days and subsequently a customized dosage from 500 to 2,000 mg per day in one or two administrations has been applied. The control of the patients has been periodically carried out on 0, 10, 30, 60, 90 and 180 days by medical examination and determination of the haematochemical and functional indexes. In particular the following indexes have been controlled: • HAQ (Health Assessment Questionnaire, 1986), internationally validated as reference functional index in the rheumatic disease; • VAS (Visuanalogic Ache Scale according to Scott Huskisson); • ESR (Erythro Sedimentation Rate).

[1] = Day 180, clarithromycin 500 mg twice a day for 8-14 days, then 500 to 2,000 mg per day, p < 0.05 (Mann-Whitney U test)

Work on `CC[C@H]1OC(=O)[C@H](C)[C@@H](O[C@H]2C[C@@](C)(OC)[C@@H](O)[C@H](C)O2)[C@H](C)[C@@H](O[C@@H]2O[C@H](C)C[C@H](N(C)C)[C@H]2O)[C@](C)(OC)C[C@@H](C)C(=O)[C@H](C)[C@@H](O)[C@]1(C)O` [clarithromycin] yielded an ESR (Day 0 (baseline, before clarithromycin), 18 patients, Erythro Sedimentation Rate) of 44.8 ± 8.4, an HAQ (Day 0 (baseline, before clarithromycin), 18 patients, Health Assessment Questionnaire) of 20.2 ± 2.6 and a VAS (Day 0 (baseline, before clarithromycin), 18 patients, Visuanalogic Ache Scale according to Scott Huskisson) of 4.7 ± 0.51. For the same compound, the HAQ (Day 180, clarithromycin 500 mg twice a day for 8-14 days, then 500 to 2,000 mg per day, p < 0.0001 (Mann-Whitney U test)) was 5.5 ± 0.51 (a), the ESR [1] was 27 ± 5.8 (c) and the VAS [1] was 1.32 ± 0.44 (b). The “side effect ascribable to the drug” value (human, in vivo) was “No significant side effect”, the patients not responding (number of patients out of 18) was 4 and the “patients responding to the therapy” value (number of patients out of 18) was 14. For the same compound, the “reduction of the symptomatology” value (starting from the second week of treatment) was “significant reduction of the symptomatology”.
